Experimental data as given in patent US20250064789A1, “KETOAMIDE DERIVATIVES AND PHARMACEUTICAL USES THEREOF” (priority 2022, published 2025).

What follows are molecules tested against recombinant SARS-CoV-2 M^pro (Severe acute respiratory syndrome coronavirus 2 (2019-nCoV) (SARS-CoV-2), UniProt P0DTD1) (assay: Inhibition of SARS-CoV-2 M^pro enzyme activity (fluorescent substrate assay)). Details: inhibition of SARS-CoV-2 M^pro enzyme activity; values given in μM; read-out: IC50.
Assay type: biochemical
`C[C@@H](NC(=O)C1CCC(F)(F)CC1)C(=O)NCC(=O)C(=O)NCc1ccccn1` [Compound 334] was tested, and the IC50 was over 5 µM. With `O=C(NCc1cocn1)C(=O)[C@@H](Cc1ccccc1)NC(=O)c1ccccc1` [Compound 458] the IC50 was 11.4 ± 0.08 µM. `C[C@@H](OCc1ccccc1)C(=O)N[C@H](Cc1ccccc1)C(=O)C(=O)NC(c1ccccc1)c1ccccn1` (some centres unmarked) [Compound 32] was tested, and the IC50 was over 5 µM. With `O=C(NCc1nccs1)C(=O)[C@@H](Cc1ccccc1)NC(=O)c1cnn(Cc2cc(F)c(F)cc2F)c1` [Compound 490] the IC50 was 5.21 ± 0.72 µM. Work on `Cc1csc(CNC(=O)C(=O)[C@@H](Cc2ccccc2)NC(=O)c2ccccc2)n1` [Compound 462] yielded an IC50 of 40.7 ± 1.5 µM. `Cc1cccc(CNC(=O)C(=O)[C@@H](Cc2ccccc2)NC(=O)[C@@H](C)OCc2ccccc2)n1` [Compound 28] showed an IC50 of over 5 µM. `C[C@@H](NC(=O)C1CCC(F)(F)CC1)C(=O)N[C@H](Cc1ccccc1)C(=O)C(=O)NCc1nccn1C` [Compound 347] showed an IC50 of over 2.5 µM.

Same assay, conditions: inhibition of SARS-CoV-2 M^pro enzyme activity; values in nM; read-out: IC50
In the case of `COC[C@@H](NC(=O)[C@H]1CC[C@@H](F)CC1)C(=O)N[C@H](Cc1ccccc1)C(=O)C(=O)NCc1nccs1` [Compound 399], the IC50 is reported as 0.0328 ± 0.0015 µM. `CS(=O)(=O)CC[C@@H](NC(=O)CC1CC(F)(F)C1)C(=O)N[C@H](Cc1ccccc1)C(=O)C(=O)NCc1nccs1` [Compound 569] gave an IC50 of 0.0188 ± 0.0009 µM. `O=C(NCc1ccccn1)C(=O)[C@@H](Cc1ccccc1)NC(=O)C1(NC(=O)C2CCC(F)(F)CC2)CCC1` [Compound 187] showed an IC50 of 0.0107 ± 0.0005 µM. For `CC(C)(C(=O)N[C@H](Cc1ccccc1)C(=O)C(=O)NCc1ccccn1)n1cc(-c2ccccc2F)cn1` [Compound 328], the IC50 was 0.0317 ± 0.0001 µM. For `O=C(Cn1cc(-c2ccc(F)c(Cl)c2)cn1)N[C@H](Cc1ccccc1)C(=O)C(=O)NCc1nccs1` [Compound 497], the IC50 was 0.036 ± 0.0024 µM. `C[C@@H](NC(=O)COc1ccc(OC(F)(F)F)cc1)C(=O)N[C@H](Cc1ccccc1)C(=O)C(=O)NCc1ccccn1` [Compound 69] was tested, and the IC50 was 0.0177 ± 0.0015 µM. With `C[C@@H](NC(=O)COc1cccc(F)c1)C(=O)N[C@H](Cc1ccccc1)C(=O)C(=O)NCc1ccccn1` [Compound 93] the IC50 was 0.0288 ± 0.001 µM. `O=C(COc1ccc(F)cc1)N[C@H](Cc1ccccc1)C(=O)C(=O)NCc1ccccn1` [Compound 54] showed an IC50 of 0.2984 ± 0.0029 µM. `C[C@@H](NC(=O)Cc1ccc(C(F)(F)F)cc1)C(=O)N[C@H](Cc1ccccc1)C(=O)C(=O)NCc1ccccn1` [Compound 78] showed an IC50 of 0.0532 ± 0.0005 µM. In the case of `CC(C)(NC(=O)CC1CCC(F)(F)CC1)C(=O)N[C@H](Cc1ccccc1)C(=O)C(=O)NCc1ccccn1` [Compound 173], the IC50 is reported as 0.0103 ± 0.0001 µM. `COC[C@@H](NC(=O)CC1CC1(F)F)C(=O)N[C@H](Cc1ccccc1)C(=O)C(=O)NCc1nccs1` (some centres unmarked) [Compound 396] gave an IC50 of 0.0488 ± 0.0004 µM. In the case of `C[C@@H](NS(=O)(=O)c1cccnc1)C(=O)N[C@H](Cc1ccccc1)C(=O)C(=O)NCc1ccccn1` [Compound 332], the IC50 is reported as 0.8883 ± 0.0012 µM. Molecule `COC[C@@H](NC(=O)C1CCCC(F)(F)C1)C(=O)N[C@H](Cc1ccccc1)C(=O)C(=O)NCc1ccccn1` (some centres unmarked) [Compound 557] has an IC50 of 0.0261 ± 0.0004 µM. `O=C(NCc1ccccn1)C(=O)[C@@H](Cc1ccccc1)NC(=O)[C@@H](Cc1ccccn1)NC(=O)C1CCC(F)(F)CC1` [Compound 217] showed an IC50 of 0.0273 ± 0.0012 µM. `C[C@@H](NC(=O)[C@H]1CC[C@H](C#N)CC1)C(=O)N[C@H](Cc1ccccc1)C(=O)C(=O)NCc1ccccn1` [Compound 117] showed an IC50 of 0.0461 ± 0.0003 µM. `O=C(NCc1ccccn1)C(=O)[C@@H](Cc1ccccc1)NC(=O)C1(NC(=O)C2CCC(F)(F)CC2)CC1` [Compound 169] showed an IC50 of 0.0226 ± 0.0037 µM. Work on `O=C(NCc1ccccn1)C(=O)[C@@H](Cc1ccccc1)NC(=O)C1(NC(=O)[C@H]2CC[C@@H](F)CC2)CC1` [Compound 162] yielded an IC50 of 0.0175 ± 0.0008 µM. In the case of `C[C@@H](OCc1ccccc1)C(=O)N[C@H](Cc1ccccc1)C(=O)C(=O)NCc1ccccn1` [Compound 1, (R)-3-((R)-2-(benzyloxy)propionamido)-2-oxo-4-phenyl-N-(pyridin-2-ylmethyl)butyramide], the IC50 is reported as 0.0146 ± 0.0013 µM. In the case of `O=C(NCc1ccccn1)C(=O)[C@@H](Cc1ccccc1)NC(=O)C1(NC(=O)c2ccc(F)cc2)CCC1` [Compound 215], the IC50 is reported as 0.0137 ± 0.0009 µM. In the case of `C[C@@H](NC(=O)/C=C/c1ccc(F)cc1)C(=O)N[C@H](Cc1ccccc1)C(=O)C(=O)NCc1ccccn1` [Compound 109], the IC50 is reported as 0.1689 ± 0.0001 µM. Molecule `CC(C)(NC(=O)c1ccc2c(c1)OC(F)(F)O2)C(=O)N[C@H](Cc1ccccc1)C(=O)C(=O)NCc1ccccn1` [Compound 182] has an IC50 of 0.0224 ± 0.0005 µM. Work on `O=C(NCc1ccccn1)C(=O)[C@@H](Cc1ccccc1)NC(=O)[C@@H]1C[C@H]2C[C@H]2N1C(=O)C1CCC(F)(F)CC1` [Compound 268] yielded an IC50 of 0.296 ± 0.0038 µM. For `CC(C)(C(=O)N[C@H](Cc1ccccc1)C(=O)C(=O)NCc1ccccn1)n1cc(-c2ccccc2)cn1` [Compound 326, (R)-3-(2-methyl-2-(4-phenyl-1H-pyrazol-1-yl)propionamido)-2-oxo-4-phenyl-N-(pyridin-2-ylmethyl)butyramide], the IC50 was 0.0207 ± 0.0005 µM. `O=C(NCc1ccccn1)C(=O)[C@@H](Cc1ccccc1)NC(=O)C1(NC(=O)[C@H]2CC[C@@H](F)CC2)CCC1` [Compound 188] showed an IC50 of 0.079 ± 0.0088 µM. In the case of `CC(C)(NC(=O)N1CCC(F)(F)CC1)C(=O)N[C@H](Cc1ccccc1)C(=O)C(=O)NCc1ccccn1` [Compound 302], the IC50 is reported as 0.0415 ± 0.0009 µM. With `C[C@@H](NC(=O)[C@H]1CC[C@@H](NC(=O)OC(C)(C)C)CC1)C(=O)N[C@H](Cc1ccccc1)C(=O)C(=O)NCc1ccccn1` [Compound 133] the IC50 was 0.198 ± 0.0096 µM. `C[C@@H](NC(=O)c1ccc(Cl)c(F)c1)C(=O)N[C@H](Cc1ccccc1)C(=O)C(=O)NCc1ccccn1` [Compound 98] gave an IC50 of 0.0407 ± 0.0019 µM. Work on `O=C(NCc1nccs1)C(=O)[C@@H](Cc1ccccc1)NC(=O)[C@@H](CO)NC(=O)C1CCCC(F)(F)C1` (some centres unmarked) [Compound 567] yielded an IC50 of 0.0636 ± 0.0029 µM. For `O=C(NCc1nccs1)C(=O)[C@@H](Cc1ccccc1)NC(=O)C1(NC(=O)C2CCC(F)(F)CC2)CCCC1` [Compound 541], the IC50 was 0.0518 ± 0.0014 µM. `C[C@@H](NC(=O)c1ccccc1F)C(=O)N[C@H](Cc1ccccc1)C(=O)C(=O)NCc1ccccn1` [Compound 138] gave an IC50 of 0.0486 ± 0.0004 µM. `O=C(CN1C(=O)CN(c2cc(F)c(F)c(F)c2)C1=O)N[C@H](Cc1ccccc1)C(=O)C(=O)NCc1nccs1` [Compound 522] gave an IC50 of 0.0747 ± 0.0042 µM. With `O=C(CNC(=O)c1ccc(F)c(Cl)c1)N[C@H](Cc1ccccc1)C(=O)C(=O)NCc1ccccn1` [Compound 441] the IC50 was 0.0185 ± 0.0003 µM. For `Cc1cc(-c2cc(Cl)cc(C#N)c2)nn1CC(=O)N[C@H](Cc1ccccc1)C(=O)C(=O)NCc1nccs1` [Compound 515], the IC50 was 0.0262 ± 0.0003 µM. `O=C(CC1CC(F)(F)C1)NC1(C(=O)N[C@H](Cc2ccccc2)C(=O)C(=O)NCc2ccccn2)CCC1` [Compound 209] was tested, and the IC50 was 0.0122 ± 0.0002 µM. `C[C@@H](NC(=O)C1(F)CCCCC1)C(=O)N[C@H](Cc1ccccc1)C(=O)C(=O)NCc1nccs1` [Compound 374] gave an IC50 of 0.0208 ± 0.0016 µM. Work on `O=C(NCc1ccccn1)C(=O)[C@@H](Cc1ccccc1)NC(=O)[C@H]1COCCN1C(=O)[C@@H]1C[C@@H]2[C@H](C1)C2(F)F` [Compound 293] yielded an IC50 of 0.0164 ± 0.0011 µM. In the case of `CCC[C@@H](NC(=O)[C@@H](C)NC(=O)C1CCC(F)(F)CC1)C(=O)C(=O)NCc1ccccn1` [Compound 358], the IC50 is reported as 0.0932 ± 0.0011 µM. `O=C(NCc1ccccn1)C(=O)[C@@H](Cc1ccccc1)NC(=O)[C@@H]1[C@H]2CCC[C@H]2CN1C(=O)NC1CCCCC1` [Compound 258] gave an IC50 of 0.0932 ± 0.0006 µM. Work on `COC[C@@H](NC(=O)OC1CC(F)(F)C1)C(=O)N[C@H](Cc1ccccc1)C(=O)C(=O)NCc1nccs1` [Compound 553] yielded an IC50 of 0.0188 ± 0.0046 µM. For `C[C@@H](NC(=O)c1ccccc1)C(=O)N[C@H](Cc1ccccc1)C(=O)C(=O)NCc1ccccn1` [Compound 137, N—((R)-1-(((R)-3,4-dioxo-1-phenyl-4-((pyridin-2-ylmethyl)amino)butan-2-yl)amino)-1-oxopropan-2-yl)benzamide], the IC50 was 0.0221 ± 0.0077 µM. `O=C(CC1CCC(F)(F)CC1)NC1(C(=O)N[C@H](Cc2ccccc2)C(=O)C(=O)NCc2ccccn2)CC1` [Compound 160] was tested, and the IC50 was 0.0135 ± 0.0035 µM. `O=C(NCc1ccccn1)C(=O)[C@@H](Cc1ccccc1)NC(=O)[C@H](NC(=O)C1CCC(F)(F)CC1)C1CCCCC1` [Compound 223] showed an IC50 of 0.0111 ± 0.0003 µM. In the case of `COC[C@@H](NC(=O)C1CCC(F)(F)CC1)C(=O)N[C@H](Cc1ccccc1)C(=O)C(=O)NCc1cscn1` [Compound 431], the IC50 is reported as 0.2337 ± 0.0018 µM. Work on `O=C(CNC(=O)C1CC2CCC1C2)N[C@H](Cc1ccccc1)C(=O)C(=O)NCc1cscn1` (some centres unmarked) [Compound 427] yielded an IC50 of 0.0209 ± 0.0004 µM. In the case of `COC[C@@H](NC(=O)C1CCC(F)(F)CC1)C(=O)N[C@H](Cc1ccccc1)C(=O)C(=O)NCc1nccs1` [Compound 393], the IC50 is reported as 0.0882 ± 0.0056 µM. In the case of `C[C@@H](NC(=O)C(F)Oc1ccc(Cl)cc1Cl)C(=O)N[C@H](Cc1ccccc1)C(=O)C(=O)NCc1ccccn1` (some centres unmarked) [Compound 94], the IC50 is reported as 0.0135 ± 0.0013 µM. `C[C@@H](NC(=O)C1CCC(F)(F)CC1)C(=O)N[C@H](Cc1ccccc1)C(=O)C(=O)NCc1ncccn1` [Compound 337] showed an IC50 of 0.0879 ± 0.0146 µM. Work on `COC[C@@H](NC(=O)C1CCCC(F)(F)C1)C(=O)N[C@H](Cc1cccc(Cl)c1)C(=O)C(=O)NCc1nccs1` (some centres unmarked) [Compound 566] yielded an IC50 of 0.0332 ± 0.0023 µM. `O=C(NCc1nccs1)C(=O)[C@@H](Cc1ccccc1)NC(=O)C1(NC(=O)C2CCC(F)(F)C2)CC(F)(F)C1` (some centres unmarked) [Compound 546] gave an IC50 of 0.0717 ± 0.0071 µM. In the case of `O=C(NCc1ccccn1)C(=O)[C@@H](Cc1ccccc1)NC(=O)C1(NC(=O)C2CCC(O)(C(F)(F)F)CC2)CCC1` (some centres unmarked) [Compound 205], the IC50 is reported as 0.0239 ± 0.0009 µM. With `C[C@@H](NC(=O)CC1CCS(=O)(=O)CC1)C(=O)N[C@H](Cc1ccccc1)C(=O)C(=O)NCc1ccccn1` [Compound 131] the IC50 was 0.0368 ± 0.0001 µM. `O=C(CN1C(=O)CN(c2cc(F)cc(F)c2)C1=O)N[C@H](Cc1ccccc1)C(=O)C(=O)NCc1nccs1` [Compound 523] was tested, and the IC50 was 0.123 ± 0.0051 µM. For `O=C(NCc1ccccn1)C(=O)[C@@H](Cc1ccccc1)NC(=O)[C@@H]1CCCN1C(=O)[C@@H](NC(=O)c1cnccn1)C1CCCCC1` [Compound 280], the IC50 was 0.0132 ± 0.0012 µM. `CC(C)(NC(=O)CCC1CCC(F)(F)CC1)C(=O)N[C@H](Cc1ccccc1)C(=O)C(=O)NCc1ccccn1` [Compound 171] showed an IC50 of 0.0089 ± 0.0004 µM. Molecule `O=C(CC1CC1(F)F)NCC(=O)N[C@H](Cc1ccccc1)C(=O)C(=O)NCc1cscn1` (some centres unmarked) [Compound 425] has an IC50 of 0.0365 ± 0.0003 µM.
